Here are results for 11 substances from patent publication US20250136634A1, “CAP ANALOG AND USE THEREOF” (SHANGHAI HONGENE BIOTECH CORPORATION, priority 2021, published 2025).

One assay deals with T1, IFIT1 (Homo sapiens, UniProt P09914).
T1 construct: endogenous in cells; host or cells: Hela cells (ATCC CCL-2)
T1 sequence (P09914 1-478): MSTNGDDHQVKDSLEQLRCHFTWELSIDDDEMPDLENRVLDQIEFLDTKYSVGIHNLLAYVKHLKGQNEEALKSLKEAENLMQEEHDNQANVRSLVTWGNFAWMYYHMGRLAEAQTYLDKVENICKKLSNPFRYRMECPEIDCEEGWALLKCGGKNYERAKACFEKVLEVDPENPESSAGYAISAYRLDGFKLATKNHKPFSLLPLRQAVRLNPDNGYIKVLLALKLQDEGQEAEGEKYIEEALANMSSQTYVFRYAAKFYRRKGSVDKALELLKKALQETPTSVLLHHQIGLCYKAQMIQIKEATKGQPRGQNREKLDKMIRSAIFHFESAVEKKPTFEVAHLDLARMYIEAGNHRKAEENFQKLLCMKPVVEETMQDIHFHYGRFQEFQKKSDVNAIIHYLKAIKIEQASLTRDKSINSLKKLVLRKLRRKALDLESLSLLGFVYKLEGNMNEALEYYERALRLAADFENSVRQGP
The experiment in a line: Binding ability of mRNA to IFIT1, RNA co-immunoprecipitation and qPCR in Hela cells. The settings on record: 2 ug mRNA/well, cells collected after 24 hours, relative to ^m7GpppApG cap, mean±SD. On the procedure:
In this example, Hela cells (ATCC CCL-2) were transfected with luciferase mRNAs (Gaussia luciferase) comprising various initial cap structures (the initial cap nucleotide structures comprised are: ^m7GpppApG, ^m7GpppA2′Ome pG, ^m7G3′OmepppA2′O-ethylpG, ^m7G2′OmepppA2′O-ethylpG, ^m7G3′Omeppp A2′O-MOEpG, ^m7G2′O-mepppA2′O-MOEpG, ^m7Gppp(N6-methyladenine)2′O-MOEpG, ^m7G2′OmepppC2′O-ethylpC, ^m7G3′OmepppA2′O-MOEpU), and collected after 24 hours. The intracellular proteins RIG-I and IFIT1 were co-precipitated with the RNAs to which they bound by RNA co-immunoprecipation. The mRNAs were subjected to reverse transcription and real-time quantitative PCR, and the relative abundance of the mRNAs is proportional to their RIG-I and IFIT1 binding ability.
(§1) Hela cells were seeded at a cell density of 4×10^5/well in 6-well plates, and transfected with mRNA at 2 ug mRNA/well when the cell density reached about 80% using Lipofectamine MessengerMAX Transfection Reagent (Invitrogen) according to the transfection steps in the instruction. The cells were collected after 24 hours, and incubated at RT for 10 minutes after the addition of fixative solution. The reaction was then terminated by adding glycine at a suitable concentration, and the cells were collected by centrifugation. Appropriate amount of lysis solution was added to the cells. The mixture was incubated on ice for 30 minutes and centrifuged to collect supernatant. Appropriate amount of (2-4 ng) anti-RIG-I and IFIT1 antibodies (Abcam) were added to the supernatant, and the mixture was incubated overnight at 4° C. on a shaker, and then 20 ul Protein A/G magnetic beads were added and incubated for 2 hours at 4° C. on a shaker. The beads were rinsed using magnetic grate for 5 minutes and repeated 3 times. After that, 1 mL TRIzol reagent was added to the magnetic beads to extract RNAs which were then reverse transcribed into cDNAs. The expression of related genes was detected using real-time quantitative fluorescent PCR with B-actin as the internal reference. The detection of each gene was repeated 3 times, and the result of the expression of each gene is expressed as the relative value to the result of ^m7GpppApG cap.
The intracellular proteins RIG-I and IFIT1 were co-precipitated with the RNAs to which they bound by RNA co-immunoprecipitation. The mRNAs were subjected to reverse transcription and real-time quantitative PCR, and the relative abundance of the mRNAs is proportional to their RIG-I and IFIT1 binding ability.
as §1, with “(Invitrogen) as the transfection reagent” for “(Invitrogen)”, “was” for “was then”
Background: Quantitative PCR measures a nucleic acid by following its amplification.

The subject of assay [1] is Thermostable T7 RNA polymerase (NEB). The note with it: Example 3, thermostable T7 RNA polymerase IVT at 50° C. for 2 hs, LC-MS. Here is the method:
The LC-MS analyses involved in determining capping efficiency in the following examples are as follows: • Equipment: Waters UPLC H-Class • Column: ACQUITY UPLC Oligonucleotide BEH C18, 2.1*150 mm • Column temperature: 75° C. • Mobile phase A: 200 mM hexafluoroisopropanol+8.15 mM triethylamine pH7.9 • Mobile phase B: methanol • Flow rate: 0.3 mL/min • Gradient:
Initial cap oligonucleotides are ^m7GpppApG, ^m7G pppA2′Ome PG (control), ^m7GBeta-D-LNApppA2′O-MOEpG, and ^m7GAlpha-L-LNApppA2′O-ethyl pG, respectively. • reacting at 50° C. for 2 hs, • adding DNase I (1U), and reacting at 37° C. for 30 mins. (5) Treatment with Antarctic Phosphatase:
For each tested initial cap oligonucleotide, the ratio of capped mRNA was assessed by analyzing liquid chromatography-mass spectrometry (LC-MS) results. In the experiment, a DNA probe complementary to the mRNA was used. Upon the hybridization of the DNA to the RNA, RNaseH specifically hydrolyzed the phosphodiester bond in the RNA to produce small fragments of RNAs with homogeneous 3′ end. The molecular weight and percentage of the small RNA fragments were determined by LC-MS, and were used to determine capping of the RNAs in the transcription reaction. Since the presence and absence of cap at 5′ end can be distinguished by the molecule weight, the capping efficiency can be determined via the molecule weight and percentage of trunked 5′ end-containing RNAs. In addition, from the calculation of the molecule weight, it can be determined that the caps added are the capping nucleotides.

In the case of ^m7G2′OmepppA2′O-MOEpG, at IFIT1 (Example 2), the “Relative binding ability to IFIT1” value was determined as 0.66 ± 0.02.
Regarding ^m7G2′OmepppA2′O-ethylpG, the “Relative binding ability to IFIT1” value at IFIT1 (Example 2) came to 0.84 ± 0.08.
Still for that read-out and setting: then ^m7G2′OmepppC2′O-ethylpC, with 0.91 ± 0.05.
Turning to ^m7G3′OmepppA2′O-MOEpG, the “Relative binding ability to IFIT1” value on IFIT1 (Example 2) is listed as 0.76 ± 0.04.
Consider ^m7G3′OmepppA2′O-MOEpU, for which the “Relative binding ability to IFIT1” value on IFIT1 (Example 2) amounted to 1.19 ± 0.07.
For ^m7G3′OmepppA2′O-ethylpG, the “Relative binding ability to IFIT1” value on IFIT1 (Example 2) is given as 0.89 ± 0.13.
On to ^m7GAlpha-L-LNApppA2′O-ethyl pG, for which the “Relative binding ability to IFIT1” value on IFIT1 (Example 3 (IVT at 50° C.)) is recorded as 0.55 ± 0.07. Further, the Capping efficiency in assay [1] worked out at 63%.
For the substance ^m7GBeta-D-LNApppA2′O-MOEpG, on IFIT1 (Example 3 (IVT at 50° C.)), the “Relative binding ability to IFIT1” value is given as 0.49 ± 0.04. The Capping efficiency in assay [1] is 70%.
For ^m7Gppp(N6-methyladenine)2′O-MOEpG, on IFIT1 (Example 2), the “Relative binding ability to IFIT1” value came out at 0.79 ± 0.01.
In the case of ^m7GpppA2′Ome pG [reference compound], the results for the “Relative binding ability to IFIT1” value at IFIT1 (Example 2) and on IFIT1 (Example 3 (IVT at 50° C.)) were 0.88 ± 0.01 and 0.84 ± 0.09, respectively. The Capping efficiency in assay [1] turned out to be 95%.
For ^m7GpppApG [reference compound], the “Relative binding ability to IFIT1” value was found to be 1 ± 0.04 at IFIT1 (Example 2) and 1 ± 0.19 on IFIT1 (Example 3 (IVT at 50° C.)). Further, in assay [1], the Capping efficiency is listed as 93%.
